Data as given in patent US9163032B2, “Esters of DCPLA and methods of treatment using the same” (Blanchette Rockefeller Neurosciences Institute, priority 2011, dated 2015).
Read-outs that look alike come from different tables or passages of the source.

Key:
[1] = tested on: cultured primary rat hippocampal neurons; assay: Neuroprotection against ASPD induced toxicity, MTT assay, primary neurons; type: cell-based; conditions: added to the cells with DCPLA-ME, 50 nM ASPD
Experimental: Viability of cells was measured by MTT assay. MTT (i.e., 3-(4,5-dimethylthiazol-2-yl)-2,5-diphenyltetrazolium bromide) is a tetrazolium salt that is cleaved to formazan by the succinate dehydrogenase, which is only active in viable cells. After solubilization of the formazan, the amount of dye can be quantified with a microplate reader at 570 nm along with a reference of 630 nm. For the MTT assay, 5×10^4 primary rat hippocampal neurons from 18-day-old embryonic Sprague-Dawley rat brains or SH-SY5Y cells were plated on each well of 24-well plates coated with poly-D-lysine. After treatment, the cells were washed with 1× PBS and were incubated with 200 μl of 1 mg/ml MTT solution (Sigma, USA) at 37° C. for 2 hr. Then the MTT-solution was removed and the cells were lysed with 200 μl isopropanol containing 0.04 M HCl and […] for 10 min. Finally, the reading was taken at 570 nm and 630 nm. All the samples were done in triplicate and the data were represented as the percentage of control.
Bryostatin 1, DCPLA, and DCPLA-ME were tested against ASPD-induced cytotoxicity to determine their neuroprotective efficacy.

PKC-ε [2] = assay: PKC-ε level in primary neurons (immunofluorescence, Western Blot); type: cell-based, rat; conditions: 5 μM inhibitor, ASPD + DCPLA-ME
Experimental: Cells were grown in two chambered slides (Nunc, USA) at low density. For immunofluorescence staining, the cells were washed with PBS (pH 7.4) and fixed with 4% paraformaldehyde for 4 min. Following fixation, the cells were blocked and permeabilized with 5% serum and 0.3% Triton X-100 in 1×PBS for 30 min. Cells were washed three times with 1×PBS and incubated with primary antibodies for 1 hr at 1:100 dilution. After the incubation, the slides were again washed three times in 1×PBS and were incubated with the FITC anti-mouse IgG and Rhodamine anti-rabbit IgG for 1 hr at 1:400 dilution. The cells were further washed and stained with DAPI (4′,6-diamidino-2′-phenylindole, dihydrochloride) (Thermo Scientific, USA) to stain the nucleus. Finally, the slides were washed and mounted in Pro Long Gold antifade mounting solution (Invitrogen, USA) and were viewed under a LSM 710 Meta confocal microscope (Zeiss) at 350 nm, 490 nm, and 540 nm excitation and 470 nm, 525 nm, and 625 nm emission for DAPI, FITC, and Rhodamine respectively. Six individual fields at 63× oil lens magnification were analyzed for the mean fluorescence intensity (MFI) in each channel.
Cells were harvested in homogenizing buffer containing 10 mM Tris-Cl (pH 7.4), 1 mM PMSF (phenylmethylsulfonyl fluoride), 1 mM EGTA, 1 mM EDTA, 50 mM NaF, and 20 μM leupeptin, and were lysed by sonication. The homogenate was centrifuged at 100,000×g for 15 min at 4° C. to obtain the cytosolic fraction (supernatant) and membrane (pellet). The pellet was resuspended in the homogenizing buffer by sonication. […] Protein concentration was measured using the Coomassie Plus (Bradford) Protein Assay kit (Pierce, USA). Following quantification, 20 μg of protein from each sample was subjected to SDS-PAGE analysis in a 4-20% gradient Tris-Glycine gel (Invitrogen, USA). […] The blot was imaged in an ImageQuant RT-ECL (GE Life Sciences, Piscataway, N.J.) and densitometric quantification was performed using IMAL software (Blanchette Rockefeller Neurosciences Institute, Morgantown, W. Va.). […]

PKC-ε [3] = target: T1, PKC-ε (Homo sapiens, UniProt Q02156); assay: PKC activation assay with purified PKC-ε isozyme (32P-phosphoprotein formation); type: biochemical; conditions: for Emax: % of control of PKCε at maximum; for Specificity ε/α: Activation of PKC-ε ÷ activation or inhibition of PKCα at 3xEC50; for concentration of maximal activation: FIG. 2, FIG. 4; for EC50: lowest concentration that activates by 50% of maximum activation; for PKC-ε activation at its peak: maximum, FIG. 1, 2, 4
T1 sequence (Q02156 1-737): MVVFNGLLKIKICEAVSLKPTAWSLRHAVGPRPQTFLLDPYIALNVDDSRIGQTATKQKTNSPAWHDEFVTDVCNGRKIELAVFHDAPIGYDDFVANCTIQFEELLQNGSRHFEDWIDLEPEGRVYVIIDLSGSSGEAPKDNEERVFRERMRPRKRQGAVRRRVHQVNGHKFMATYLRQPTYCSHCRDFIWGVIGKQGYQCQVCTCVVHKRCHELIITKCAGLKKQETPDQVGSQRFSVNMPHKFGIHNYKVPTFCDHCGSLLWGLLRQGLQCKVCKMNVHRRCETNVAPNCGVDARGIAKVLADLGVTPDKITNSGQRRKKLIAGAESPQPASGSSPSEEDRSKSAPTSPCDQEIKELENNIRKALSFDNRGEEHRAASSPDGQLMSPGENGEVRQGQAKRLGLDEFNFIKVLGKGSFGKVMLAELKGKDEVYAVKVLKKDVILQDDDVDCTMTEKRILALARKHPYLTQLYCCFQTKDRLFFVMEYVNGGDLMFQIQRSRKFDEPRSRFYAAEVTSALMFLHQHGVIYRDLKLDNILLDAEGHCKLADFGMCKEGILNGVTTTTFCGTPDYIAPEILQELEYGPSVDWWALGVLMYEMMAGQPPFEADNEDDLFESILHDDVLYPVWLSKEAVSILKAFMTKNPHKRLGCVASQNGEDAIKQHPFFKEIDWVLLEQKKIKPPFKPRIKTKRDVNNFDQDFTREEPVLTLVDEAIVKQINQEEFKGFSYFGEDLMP
Experimental: (§1) For measurement of PKC activation by DCPLA-ME, activation of recombinant PKC-α, PKC-ε, and PKC-δ was evaluated. DCPLA-ME induced activation was measured in the absence of diacylglycerol (DAG) and phosphatidylserine (PS) as described earlier. See Nelson, T. J. et al., J. Biol. Chem., 2009, 284: 34514-34521, and Kanno, T. et al., J. Cell Physiol., 2009, 221: 183-188. Individual enzymes were incubated for 15 min at 37° C. in the presence of 10 μM histones, 4.89 mM CaCl2, 10 mM MgCl2, 20 mM HEPES (pH 7.4), 0.8 mM EDTA, 4 mM EGTA, 4% glycerol, 8 μg/ml aprotinin, 8 μg/ml leupeptin, 2 mM benzamidine, and 0.5 μCi of [γ-^32P]ATP. Purified PKC-α, PKC-ε and PKC-δ were preincubated with DCPLA-ME for 5 min at room temperature. [^32P]-Phosphoprotein formation was measured by adsorption onto phosphocellulose.
(§2) To measure PKC, 10 μl of cell homogenate or purified PKC isozyme was incubated for 15 min at 37° C. in the presence of 10 μM histones, 4.89 mM CaCl2, 1.2 μg/μl phosphatidyl-L-serine, 0.18 μg/μl 1,2-dioctanoyl-sn-glycerol, 10 mM MgCl2, 20 mM HEPES (pH 7.4), 0.8 mM EDTA, 4 mM EGTA, 4% glycerol, 8 μg/ml aprotinin, 8 μg/ml leupeptin, and 2 mM benzamidine. [γ32P]ATP (0.5 μCi) was added and 32P-phosphoprotein formation was measured by adsorption onto phosphocellulose as described previously. See Nelson et al., J. Neurochemistry, 1995, 65: 2350-2357.
(§3) PKC activity of each compound was measured in the absence of diacylglycerol and phosphatidyl-L-serine and PKC-δ and PKC-ε were measured in the absence of added EGTA and CaCl2, as described by Kanno et al., J. Lipid Res., 2006, 47: 1146-1156. Low concentrations of Ca^2+ are needed because high Ca^2+ interacts with the PKC phosphatidylserine binding site and prevents activation. […] To determine their PKC isozyme specificity, the compounds were pre-incubated with purified isoforms of PKC for five minutes and the PKC activity was measured radiometrically.
(§4) The activation and PKC isozyme specificity of DCPLA-ethyl ester was measured following the procedures in Example 1(B) and (C), except that 9 ng of the purified isozyme was used and it was pre-incubated for 5 minutes at room temperature (FIG. 3). PKC-ε activation by DCPLA-tert-butyl ester and DCPLA-retinyl ester was measured in the same manner as DCPLA-ethyl ester (FIG. 3).
The EC50 values, PKC specificity, and activation for a select number of DCPLA esters was determined (see Table 1). EC50 values were determined by measuring the lowest concentration that activates by 50% of maximum activation. […] The specificity and activation of PKC by the various esters of DCPLA were determined from the measurements of activation of PKC isozymes.

PKC-δ = PKC-δ (Homo sapiens, UniProt Q05655); assay: PKC activation assay with purified PKC-δ isozyme; type: biochemical
PKC-δ, sequence (Q05655 whole entry): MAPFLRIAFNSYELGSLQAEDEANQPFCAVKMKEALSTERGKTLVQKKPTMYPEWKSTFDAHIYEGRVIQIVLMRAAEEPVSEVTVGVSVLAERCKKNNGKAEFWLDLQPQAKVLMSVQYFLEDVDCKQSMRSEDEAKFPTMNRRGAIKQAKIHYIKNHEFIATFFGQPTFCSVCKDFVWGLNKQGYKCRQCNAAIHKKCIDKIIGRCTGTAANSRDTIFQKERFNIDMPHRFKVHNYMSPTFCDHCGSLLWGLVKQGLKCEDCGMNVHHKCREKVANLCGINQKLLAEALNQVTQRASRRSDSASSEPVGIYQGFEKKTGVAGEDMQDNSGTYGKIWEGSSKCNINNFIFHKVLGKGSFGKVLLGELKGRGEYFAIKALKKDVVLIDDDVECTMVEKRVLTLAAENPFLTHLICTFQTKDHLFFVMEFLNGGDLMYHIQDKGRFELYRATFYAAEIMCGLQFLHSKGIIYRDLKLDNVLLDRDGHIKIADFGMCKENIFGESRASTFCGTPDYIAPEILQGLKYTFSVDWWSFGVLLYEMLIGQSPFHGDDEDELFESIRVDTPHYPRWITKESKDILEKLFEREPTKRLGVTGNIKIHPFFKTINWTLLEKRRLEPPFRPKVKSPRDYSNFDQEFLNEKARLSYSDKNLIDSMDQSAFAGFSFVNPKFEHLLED
Experimental: as §1
as §2, with “2350-2357. […]” for “2350-2357.”

PKC-α = PKC-α (Homo sapiens, UniProt P17252); assay: PKC activation assay with purified PKC-α isozyme; type: biochemical
Experimental: as §1
as §2, with “See Nelson et al., J. Neurochemistry, 1995, 65: 2350-2357.” left out
as §3, with “1146-1156.” for “1146-1156. Low concentrations of Ca^2+ are needed because high Ca^2+ interacts with the PKC phosphatidylserine binding site and prevents activation.”
as §4

Compound | Emax (PKC-ε [3]) | Specificity ε/α (PKC-ε [3]) | concentration of maximal activation (PKC-ε [3]) | EC50 (PKC-ε [3]) | PKC-ε activation at its peak (PKC-ε [3]) | also measured
EAVSLKPT |  |  |  |  |  | effect on DCPLA-ME neuroprotection [1]: blocked DCPLA-ME's protective effect; effect on DCPLA-ME protection of PKC-ε protein level (PKC-ε [2]): completely blocked
CCCCCC1CC1CC1CC1CCCCCCCC(=O)OC(C)C (centres unmarked) [DCPLA-isopropyl ester] | 140% | 1.4 | 10 nM | 0.1 nM | up to 40 % of control | effect on PKC-δ (PKC-δ): only slightly activated
CCCCC/C=C\C/C=C\CCCCCCCC(=O)O[C@H]1CC[C@@]2(C)C(=CC[C@H]3[C@@H]4CC[C@H]([C@H](C)CCCC(C)C)[C@@]4(C)CC[C@@H]32)C1 [Cholesteryl linoleate, cholesteryl linoleate, reference compound] |  |  |  |  |  | PKC-ε activation (PKC-ε [3]; FIG. 4): little or no activation; PKC-α activation (PKC-α; FIG. 4): 20%
CCCCCC1CC1CC1CC1CCCCCCCC(=O)OC1CC[C@@]2(C)C(=CC[C@H]3[C@H]4CC[C@H]([C@H](C)CCCC(C)C)[C@@]4(C)CC[C@H]32)C1 (some centres unmarked) [DCPLA-cholesteryl ester, DCPLA cholesteryl ester] | 122% | 0.94 | 0.01 nM | 0.005 nM | up to 130 % of control | affinity for PKC-ε and PKC-δ (PKC-ε [3]): extremely high affinity; form of activity vs. concentration response (PKC-ε [3]): biphasic manner; potency relative to Bryostatin 1 (PKC-ε [3]; from concentration of maximal activity): 18 ×; form of activity vs. concentration response (PKC-ε [3]; listed as cholesteryl ester): bimodal activation; effect on PKC-α (PKC-α): inhibited at all concentrations
